What was measured:
[1] = Laying hens: egg production and egg yolk cholesterol; format: in vivo, laying hens (chickens)
Protocol: Laying hens (69 weeks of age) were randomly assigned to either a control diet or a diet containing 0.2 wt % KIC (Na). For the next 28 days feed consumption was recorded and eggs collected. Eggs were weighed and analyzed for egg yolk cholesterol. The feed composition is shown in Table C and the results in Table D. The total protein was about 18% on a dry matter basis, and the amount of leucine was about 9% of the protein. The control diet was the same except for the omission of the KIC.

[2] = test system: cholesterol in lean tissue and plasma; assay: Lamb trials: cholesterol in lean tissue and plasma; format: in vivo, lambs (sheep)
Excerpt: (§1) The lambs used in Trial 1 consisted of medium-frame crossbred wethers and ewes weighing 26 to 31 kg. The lambs used in Trial 2 consisted of medium-framced crossbred rams weighing 18 to 25 kg. Each animal was raised as a single. The lambs were housed in a temperature controlled room in individual pens with nipple waterers. When received, the lamps were vaccinated for enterotoxemia. They were allowed to adjust to the pens and the environment for 10 days. One day before the trial began, the lambs were sheared and placed on their respective dietary treatments. The lamps were allotted blocking by weight and sex into two dietary treatment groups. Growth and feed consumption were measured bi-weekly. All lamb weights were taken after a 12 to 16 hour fast. The animals were slaughtered at 50 kg in the Iowa State University Meat laboratory facilities at Ames, Iowa. At slaughter, the lamb's internal organs and wool were weighed and sampled, loin eye area and back fat measured, and carcasses separated into fat, lean, and bone.
(§2) The SMB (soybean meal-containing) and the CGM (corn-gluten-containing) diets (compositions given in Table A) were fed twice per day in quantities ensuring that feed was before the lambs at all times. The diets were calculated to be equivalent to each other with respect to metabolizable protein, ether extract, fiber, and minerals with the exception of calcium and phosphorus. […] The CGM diet was calculated to contain slightly more energy (TDN 81.7 vs. 79.0, NEm 1.88 v. 1.86, Neg. 1.23 vs. 1.22). […] The soybean meal ingredient contained about 3.5 wt % leucine, while the corn gluten meal ingredient contained about 15 wt % leucine. The CGM diet was therefore higher in leucine than the SBM diet, containing an estimated 16 wt % leucine as compared with an estimated 8 wt % leucine based on total crude protein in the diet.
^(8) Amount of cholesterol in lean tissue (ng/mg) and plasma (ng/ml).
(§3) ^(1)- (8) See Table B, except cholesterol data is for lean tissue

[3] = test system: lymphocytes; assay: Study of Immune Function: lymphocyte blastogenesis, sheep (experiments 1 and 2); format: cell-based, lambs (sheep)
Protocol: A study was conducted to determine if KIC administration can alter white blood cell function, specifically T lymphocyte function, in growing sheep and cattle. Eighteen medium-framed crossbred male lambs were used in experiment 1. Lambs were randomly assigned to either a control diet (n=10) or a diet supplemented with 1% KIC (n=8). Animals were fed ad libitum in individual cages. At 100 and 108 days of treatment, 50-ml blood samples were collected for lymphocyte and neutrophil function tests.
In experiment 2, 19 intact crossbred male lambs were randomly assigned to either a saline treatment group (n=9) or a KIC treatment group (n=10). Control lambs were injected with 50 ml of a saline solution, and KIC treated lambs were injected with 50 ml of a 5% solution of KIC (sodium salt) daily (~2.5 g KIC/day). All injections were made intraperitoneally in the right posterior abdominal region after disinfection of the area. At day 60 and day 66 of treatment, blood was collected for lymphocyte and neutrophil function tests.
Sheep in experiments 1 and 2 were fed diets based on a mixture of 48% corn, 5% molasses, 20% alfalfa meal, 0.8% limestone, 0.6% salt-mineral-vitamin mix and ~25% of a protein supplement (either soybean meal, corn gluten meal, or corn gluten feed). The diets were isonitrogenous and analyzed to be ~20% crude protein and 89% dry matter. The KIC diet consisted of the basal diet to which was added 1% calcium-KIC, whereas the control diet was the basal diet plus 0.25% calcium carbonate.
Blood was collected by jugular venapuncture into acid-citrate-dextrose anticoagulant. Lymphocytes and neutrophils were isolated, and lymphocyte blastogenesis and neutrophil function evaluated. KIC was obtained from SOBAC, Paris, France. […] Each experiment was statistically analyzed by analysis of variance. In sheep experiments, individual animals were the experimental units, whereas pen means were analyzed in the cattle experiment.
^1 Background (BKG), phytohemagglutininstimulated (PHA), concanavalin
Astimulated (ConA), and pokeweed mitogenstimulated (PWM) blastogenesis
were determined by measuring the incorporation ^3 H thymidine into

[4] = Lamb trials: growth, feed efficiency, wool and carcass; format: in vivo, lambs (sheep)
Excerpt: as §1, §2
^(1) Feed ingredients given on wt % basis.
^(3) Diets containing calcium salt of alphaketoisocaproate (KIC).
^(1) Statistical analysis: *designates p < .05, a significant
^(2) Average daily (24 hrs.) gain (kilograms).
^(3) Kilograms feed per kilogram weight gain.
^(4) Amount of wool in grams.
^(5) Amount of back fat in inches.
^(6) Amount of lean meat in kilograms.
as §3

[5] = test system: cortisol in plasma; assay: Lamb trials: plasma cortisol; format: in vivo, lambs (sheep); details: * p<.05
Excerpt: as §1, §2
^(7) Amount of cortisol in plasma (ng/ml).

[6] = Feedlot steers: death, sickness, condemned livers; format: in vivo, steers (cattle)
Excerpt: Seventy-two medium-frame steers, with an average weight of 578 lbs., were allotted to 12 pens of 6 animals each. A common basal diet was fed ad libitum to all cattle. This consisted of 48.9% cracked corn, 24.4% ground corn cobs, 17.8% expeller Soybean meal, 7.0% molasses (liquid), 1.3% limestone, 0.25% dicalcium phosphate, 2% salt, 0.02% trace mineral premix, and 0.1% vitamin A premix for the first 58 days of the experiment, and was changed to 54.3% cracked corn and 12.8% expeller soybean meal for the remaining 103 days of the experiment. Three pens were assigned to each treatment. The treatments consisted of four levels of Ca-KIC in a pelleted supplement: 0%, 0.02%, 0.07%, and 0.20% of the basal diet (0.05% control pellets, 0.04% KIC pellets, 0.14% KIC pellets, and 0.40% KIC pellets). The pellets were preweighted and top-dressed on the basal diet twice daily. After 58 days, the cattle on the 0.20% KIC were removed from the experiment. The cattle were not implanted with a growth promotant nor were ionophores included in the diet. The cattle were placed in the feedlot and fed a growing ration for 5 weeks prior to the start of the experiment. The cattle were weighed on 2 consecutive days at the beginning and end of the experiment, and every 14 days during the trial. […] Loin eye area and fat thickness over the loin were measured on each carcass. […]

CC(C)CC(=O)C(=O)O [KIC, alpha-ketoisocaproate]
Av. Eggs ([1]; 0.2 wt % KIC (Na), 28 days (control 1.105)): 1.233 kg./hen
Average No. Eggs/Hen ([1]; 0.2 wt % KIC (Na), 28 days (control 17.7)): 19.5
Feed Average ([1]; 0.2 wt % KIC (Na), 28 days (control 109)): 109 gms/hen/day
Avg. yolk Cholesterol ([1]; 0.2 wt % KIC (Na), 28 days (control 1068)): 996 mg/100 gms
Av. Eggs (kg./hen), % Change ([1]; vs control): +11.1%
Average No. Eggs/Hen, % Change ([1]; vs control): +10.2%
Avg. yolk Cholesterol, % Change ([1]; vs control): -7%
Feed Average, % Change ([1]; vs control): 0%
CHOLESTEROL PLASMA: amount of cholesterol in plasma ([2]; Trial 1, CGM diet, 1% KIC (0%: 33)): 32 ng/mL
CHOLESTEROL TISSUE: amount of cholesterol in lean tissue ([2]; Trial 1, CGM diet, 1% KIC (0%: 40)): 32 ng/mg
CHOLESTEROL PLASMA: amount of cholesterol in plasma ([2]; Trial 1, SBM diet, 1% KIC (0%: 32)): 23 ng/mL
CHOLESTEROL TISSUE: amount of cholesterol in lean tissue ([2]; Trial 1, SBM diet, 1% KIC (0%: 80)): 44 ng/mg
CHOLESTEROL: lean tissue ([2]; Trial 2, CGM diet, 1% KIC (0%: 92.2), * p<.05): 81.2 ng/mg
CHOLESTEROL: lean tissue ([2]; Trial 2, SBM diet, 1% KIC (0%: 75.2)): 83.2 ng/mg
BKG: background blastogenesis ([3]; Exp. 1, oral uncoated KIC 1% (control 466), p<.008): 852 Counts/min per 2 × 10^5 cells
PHA: phytohemagglutinin-stimulated blastogenesis ([3]; Exp. 1, oral uncoated KIC 1% (control 6100), p<.003): 16800 Counts/min per 2 × 10^5 cells
PWM: pokeweed mitogen-stimulated blastogenesis ([3]; Exp. 1, oral uncoated KIC 1% (control 19400), p<.77): 17300 Counts/min per 2 × 10^5 cells
ConA: concanavalin A-stimulated blastogenesis ([3]; Exp. 1, oral uncoated KIC 1% (control 41100), p<.81): 44700 Counts/min per 2 × 10^5 cells
BKG: background blastogenesis ([3]; Exp. 2, IP injected KIC (saline 752), p<.10): 947 Counts/min per 2 × 10^5 cells
PHA: phytohemagglutinin-stimulated blastogenesis ([3]; Exp. 2, IP injected KIC (saline 8500), p<.09): 12600 Counts/min per 2 × 10^5 cells
PWM: pokeweed mitogen-stimulated blastogenesis ([3]; Exp. 2, IP injected KIC (saline 21600), p<.72): 29400 Counts/min per 2 × 10^5 cells
ConA: concanavalin A-stimulated blastogenesis ([3]; Exp. 2, IP injected KIC (saline 31200), p<.87): 33500 Counts/min per 2 × 10^5 cells
increase of PHA stimulation ([3]; experiment 1, sheep, oral 1% KIC): 280%
increase of PHA stimulation ([3]; experiment 2, sheep, IP): 150%
F/G: kilograms feed per kilogram weight gain ([4]; Trial 1, CGM diet, 1% KIC (0%: 4.53), * p<.05): 5.20
LEAN: amount of lean meat ([4]; Trial 1, CGM diet, 1% KIC (0%: 5.9)): 6.0 kilograms
WOOL: amount of wool ([4]; Trial 1, CGM diet, 1% KIC (0%: .158), * p<.05): .167 grams
BACK FAT: amount of back fat ([4]; Trial 1, CGM diet, 1% KIC (0%: .20)): .18 inches
ADG: average daily (24 hrs.) gain ([4]; Trial 1, CGM diet, 1% KIC (0%: .37)): .30 kilograms
F/G: kilograms feed per kilogram weight gain ([4]; Trial 1, SBM diet, 1% KIC (0%: 5.04), * p<.05): 4.82
LEAN: amount of lean meat ([4]; Trial 1, SBM diet, 1% KIC (0%: 6.2)): 6.8 kilograms
WOOL: amount of wool ([4]; Trial 1, SBM diet, 1% KIC (0%: .176), * p<.05): .216 grams
BACK FAT: amount of back fat ([4]; Trial 1, SBM diet, 1% KIC (0%: .26)): .22 inches
ADG: average daily (24 hrs.) gain ([4]; Trial 1, SBM diet, 1% KIC (0%: .33)): .36 kilograms
F/G: kilograms feed per kilogram weight gain ([4]; Trial 2, CGM diet, 1% KIC (0%: 4.17)): 4.35
LEAN: amount of lean meat ([4]; Trial 2, CGM diet, 1% KIC (0%: 6.1)): 5.8 kilograms
WOOL: amount of wool ([4]; Trial 2, CGM diet, 1% KIC (0%: .262), * p<.05): .294 grams
BACK FAT: amount of back fat ([4]; Trial 2, CGM diet, 1% KIC (0%: .29)): .20 inches
ADG: average daily (24 hrs.) gain ([4]; Trial 2, CGM diet, 1% KIC (0%: .333), * p<.05): .308 kilograms
F/G: kilograms feed per kilogram weight gain ([4]; Trial 2, SBM diet, 1% KIC (0%: 4.76), * p<.05): 4.17
LEAN: amount of lean meat ([4]; Trial 2, SBM diet, 1% KIC (0%: 5.9)): 5.4 kilograms
WOOL: amount of wool ([4]; Trial 2, SBM diet, 1% KIC (0%: .213), * p<.05): .267 grams
BACK FAT: amount of back fat ([4]; Trial 2, SBM diet, 1% KIC (0%: .26)): .21 inches
ADG: average daily (24 hrs.) gain ([4]; Trial 2, SBM diet, 1% KIC (0%: .304), * p<.05): .339 kilograms
CORTISOL: amount of cortisol in plasma ([5]; Trial 1, CGM diet, 1% KIC (0%: 1.04)): .65 ng/mL
CORTISOL: amount of cortisol in plasma ([5]; Trial 1, SBM diet, 1% KIC (0%: .99)): .83 ng/mL
CORTISOL: amount of cortisol in plasma ([5]; Trial 2, CGM diet, 1% KIC (0%: 3.77)): 2.43 ng/mL
CORTISOL: amount of cortisol in plasma ([5]; Trial 2, SBM diet, 1% KIC (0%: 2.70)): 2.25 ng/mL
animals that died or were treated for sickness ([6]; KIC-treated groups (control: one died, one treated)): no animals
condemned liver ([6]; bovine, in vivo): one
